Experimental data reported in the OPERA property sets (Mansouri et al. 2018).

Details: for log10 BCF / log10 biotransformation half-life (days): fish

Structure (SMILES) | boiling point [°C] | melting point [°C] | other results
O=C1CCCCC1C1=CCCCC1 (stereo not given) | 265 | -78 | ready biodegradability: not readily biodegradable; log10 BCF: 0.7
Nc1cccc(Oc2ccccc2)c1 | 315 | 37 | –
C=C(C)C(=O)OC(C)(C)C | – | – | ready biodegradability: not readily biodegradable
Ic1ccccc1I | 287 | 27 | –
Nc1ccc(Br)cc1Br | – | 79.5 | –
O=C(O)c1ccccc1Br | – | 150 | –
CC[N+](C)(C)C(C)CC(c1ccccc1)c1ccccc1.[Br-] (stereo not given) | – | 204 | –
Nc1ncnc2c1ncn2[C@@H]1O[C@H](CO)[C@@H](O)[C@H]1O | – | 246 | –
CC1CCSCC1 | 159 | -28 | –
CCOC(=O)CC(=O)c1ccccc1 | – | – | log10 vapour pressure (mmHg): -3.39
CCc1cccc(O)c1 | 218 | -4 | log10 Henry constant (atm·m³/mol): -6.2; log10 vapour pressure (mmHg): -1.3; ready biodegradability: readily biodegradable
O=C(Nc1ccc([N+](=O)[O-])cc1Cl)c1cc(Cl)ccc1O | – | 230 | log10 Koc (L/kg): 3.35; log10 vapour pressure (mmHg): -10.8; ready biodegradability: not readily biodegradable
Cc1cc(C)c(C)c(O)c1C | 247 | 118 | –
COC(=O)C1CCCCC1 | 183 | – | –
CC(C)(O)C(Br)(Br)Br | – | 169 | –
CN(C)c1ccc(C(=O)c2ccccc2)cc1 | – | 92.5 | –
CCCCCCCCCCCCC1CCCCC1 | 331 | 12.5 | –
O=C1CCCCCCC1 | 196 | 29 | log10 vapour pressure (mmHg): -0.389
CC1CNCC(C)O1 (stereo not given) | 147 | -88 | –
CCCCCCCCCCCCCCCCCCI | 383 | 34 | log10 vapour pressure (mmHg): -5.72
C=Cc1ccccc1 | 145 | -31 | log10 Henry constant (atm·m³/mol): -2.56; log10 Koc (L/kg): 2.96; log10 vapour pressure (mmHg): 0.806; ready biodegradability: readily biodegradable; log10 BCF: 1.13
N#C/C=C/C#N | 186 | 96.8 | –

Structure (SMILES) | boiling point [°C] | melting point [°C] | other results
c1cc2c(cc1O[C@H]1OC[C@H]3[C@@H]1CO[C@@H]3c1ccc3c(c1)OCO3)OCO2 | – | 93.5 | –
Clc1ccc(Oc2cccc(Cl)c2Cl)cc1 | – | – | log10 vapour pressure (mmHg): -3.94
Nc1ccccc1N | 257 | 102 | log10 vapour pressure (mmHg): -2.69; ready biodegradability: not readily biodegradable
COC(=O)C1(S(=O)(=O)c2ccc(Cl)cc2)CCC1 | – | 76.2 | –
O=C(CO)c1ccccc1 | – | 90 | –
O=C(O)c1cc2ccccc2[nH]1 | – | 206 | –
CCCCCCCCCCCC(=O)OCCOCCO | – | 17.5 | –
CCCCCC(C)CCC (stereo not given) | 166 | -99 | –
CCCS | 67.8 | -113 | log10 Henry constant (atm·m³/mol): -2.39; log10 vapour pressure (mmHg): 2.19
C#CCCCCCCCCCCCCCCCCCC | 340 | 36 | –
ClC=C(Cl)C(Cl)=CCl | 188 | -4 | –
Cc1c(F)c(F)c(COC(=O)C2C(/C=C(\Cl)C(F)(F)F)C2(C)C)c(F)c1F (stereo not given) | – | 44.6 | log10 vapour pressure (mmHg): -4.22
O=C(NC(=O)c1c(F)cccc1F)Nc1cc(Cl)c(F)c(Cl)c1F | – | 222 | log10 vapour pressure (mmHg): -11.2
CCOP(=S)(OCC)SC(CCl)N1C(=O)c2ccccc2C1=O (stereo not given) | – | 68 | log10 vapour pressure (mmHg): -7.21
O=C(Cl)c1ccccc1F | 206 | 4 | –
O=[N+]([O-])c1ccccc1F | – | -6 | –
C=Cc1cccc(C=C)c1 | – | -52.3 | log10 vapour pressure (mmHg): -0.237; ready biodegradability: not readily biodegradable; log10 BCF: 2.54; log10 biotransformation half-life (days): 0.59
Oc1c(Cl)c(Cl)cc(Cl)c1Cl | – | 115 | log10 BCF: 2.15; log10 biotransformation half-life (days): -0.1
CNC(=O)/C=C(\C)OP(=O)(OC)OC | – | 55 | log10 Koc (L/kg): 0; log10 vapour pressure (mmHg): -5.66
C=COCCC | 65 | – | –
CC(C)(C)C(=O)OCC(=O)[C@@]1(O)CC[C@H]2[C@@H]3CCC4=CC(=O)C=C[C@]4(C)[C@H]3[C@@H](O)C[C@@]21C | – | 233 | –
Cc1ccc2ccccc2c1N | – | 32 | –

Structure (SMILES) | boiling point [°C] | melting point [°C] | other results
CCOC(=O)C#Cc1ccccc1 | 265 | – | –
FC(F)(Br)Br | 25 | -110 | log10 vapour pressure (mmHg): 2.91
N#CI | – | 147 | –
C=C(C)C(=O)NCO | – | -37 | –
NC(=O)CF | – | 108 | –
O=C(O)c1ccccc1S(=O)(=O)O | – | 141 | ready biodegradability: not readily biodegradable
CCCCN(C)C | 95 | – | –
CN(C)c1cccc(C(=O)O)c1 | – | – | ready biodegradability: not readily biodegradable
CC1=CCC(C(C)(C)O)CC1 (stereo not given) | 219 | 37 | log10 Henry constant (atm·m³/mol): -5.65; log10 vapour pressure (mmHg): -1.37; ready biodegradability: readily biodegradable
CCOC(=O)C(Br)C(C)C (stereo not given) | 186 | – | –
CCCCCCCCC(=O)O | 254 | 12.3 | log10 vapour pressure (mmHg): -2.78; ready biodegradability: readily biodegradable
O=[N+]([O-])c1ccc(N=Nc2ccc(O)cc2)cc1 | – | – | log10 vapour pressure (mmHg): -9.52
O=C(OCCO)c1ccccc1O | – | 37 | –
OCc1ccc(-c2ccccc2)cc1 | – | – | log10 Koc (L/kg): 2.54
C=CC(O)CCC (stereo not given) | 134 | – | –
C=C(CC(C)(C)c1ccccc1)c1ccccc1 | – | – | ready biodegradability: not readily biodegradable
Clc1ccc(Cl)c(Br)c1 | 226 | 35 | –
C(=C(c1ccccc1)c1ccccc1)c1ccccc1 | – | 72.5 | –
CCCC=CC(C)C | 112 | -108 | –
CCOP(=S)(OCC)Oc1ccc2c(C)c(Cl)c(=O)oc2c1 | – | 93 | log10 vapour pressure (mmHg): -7.01
